In this test the test system is CAL51 cell proliferation. The test is described as follows: Cell Titer Glo Proliferation Assay (CAL51). The class given is cell-based, human. Conditions: Homo sapiens, CAL-51; CAL51 cell proliferation, 72 h, Cell Titer Glo luminescence; read-out: Act. Level. A digest of the protocol: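 CAL51 triple-negative breast cancer cells in DMEM or RPMI with 10% FBS were treated after overnight culture with serially diluted compound at 0.2% final DMSO. After 72 h, viability was read as CellTiter-Glo luminescence.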
Background: ATP-based viability assays read luminescence as a measure of living cells.

Consider `Cc1nc2ccc(-c3c[nH]c4nc(Nc5cnn(C)c5C)nc(OC5CCCC5)c34)cc2o1` [Example 296, 4-(cyclopentyloxy)-N-(1,5-dimethyl-1H-pyrazol-4-yl)-5-(2-methylbenzo[d]oxazol-6-yl)-7H-pyrrolo[2,3-d]pyrimidin-2-amine], for which the IC50 was less than 100 nM. Regarding `CNC(=O)c1ccc(Nc2nc(OC3CCOCC3)c3c(-c4ccnc(C(=O)NC)c4)c[nH]c3n2)c(OC)c1` [Example 288, 4-(2-(2-methoxy-4-(methylcarbamoyl)phenylamino)-4-(tetrahydro-2H-pyran-4-yloxy)-7H-pyrrolo[2,3-d]pyrimidin-5-yl)-N-methylpicolinamide], the IC50 lay within 100 to 400 nM. Next, `COc1cc(-c2cnn(C)c2)ccc1Nc1nc(OC2CCCC2)c2c(-c3ccc4nc(C)oc4c3)c[nH]c2n1` [Example 227, 4-(cyclopentyloxy)-N-(2-methoxy-4-(1-methyl-1H-pyrazol-4-yl)phenyl)-5-(2-methylbenzo[d]oxazol-6-yl)-7H-pyrrolo[2,3-d] pyrimidin-2-amine]: 100 to 400 nM; `CNC(=O)c1ccc(Nc2nc(OC3CCOCC3)c3c(-c4ncco4)c[nH]c3n2)c(OC)c1` [Example 173, 3-methoxy-N-methyl-4-(5-(oxazol-2-yl)-4-(tetrahydro-2H-pyran-4-yloxy)-7H-pyrrolo[2,3-d]pyrimidin-2-ylamino)benzamide]: 400 to 1000 nM; `CNC(=O)c1ccc(Nc2nc(OC3CCOCC3)c3c(-c4cnn(C)c4)c[nH]c3n2)c(OC)c1` [Example 184, 3-methoxy-N-methyl-4-(5-(1-methyl-1H-pyrazol-4-yl)-4-(tetrahydro-2H-pyran-4-yloxy)-7H-pyrrolo[2,3-d]pyrimidin-2-ylamino)benzamide]: less than 100 nM. In the case of `Cc1nc2ccc(-c3c[nH]c4nc(Nc5ccc(C(=O)N(C)C)cc5C)nc(NC5CCOCC5)c34)cc2o1` [Example 69, N,N,3-trimethyl-4-(5-(2-methylbenzo[d]oxazol-6-yl)-4-(tetrahydro-2H-pyran-4-ylamino)-7H-pyrrolo[2,3-d]pyrimidin-2-ylamino)benzamide], the IC50 fell in the range of 100 to 400 nM. Take `COc1nc(Nc2ccc(C(=O)N(C)C)cc2Cl)nc2[nH]cc(-c3ccc4[nH]c(N)nc4c3)c12` [Example 71, 4-(5-(2-amino-1H-benzo[d]imidazol-5-yl)-4-methoxy-7H-pyrrolo[2,3-d]pyrimidin-2-ylamino)-3-chloro-N,N-dimethylbenzamide]: the IC50 is 100 to 400 nM. For `Cc1nc2ccc(-c3c[nH]c4nc(Nc5ccc(C(=O)N(C)C)cc5C)nc(O[C@H]5CC[C@H](O)CC5)c34)cc2o1` [Example 92, 4-(4-((1r,4r)-4-hydroxycyclo-hexyloxy)-5-(2-methylbenzo[d]oxazol-6-yl)-7H-pyrrolo[2,3-d]pyrimidin-2-ylamino)-N,N,3-trimethylbenzamide], the IC50 was less than 100 nM. For the compound `COc1cc(C(=O)NCCN)ccc1Nc1nc(OC2CCCC2)c2c(-c3ccc4nc(C)oc4c3)c[nH]c2n1` [Example 100, N-(2-aminoethyl)-4-(4-(cyclopentyl-oxy)-5-(2-methylbenzo[d]oxazol-6-yl)-7H-pyrrolo[2,3-d]pyrimidin-2-ylamino)-3-methoxybenzamide], the IC50 was less than 100 nM.

For the compound `CNC(=O)c1ccc(Nc2nc(OC3CCCC3)c3c(-c4ccc5c(C)noc5c4)c[nH]c3n2)c(OC)c1` [Example 279, 4-(4-(cyclopentyloxy)-5-(3-methylbenzo[d]isoxazol-6-yl)-7H-pyrrolo[2,3-d]pyrimidin-2-ylamino)-3-methoxy-N-methylbenzamide], the IC50 is less than 100 nM. `CNC(=O)c1ccc(-c2c[nH]c3nc(Nc4ccc(C(=O)NC)cc4OC)nc(OC4CCOCC4)c23)cc1` [Example 123, 3-methoxy-N-methyl-4-(5-(4-(methylcarbamoyl)phenyl)-4-(tetrahydro-2H-pyran-4-yloxy)-7H-pyrrolo[2,3-d]pyrimidin-2-ylamino) benzamide]: the IC50 was less than 100 nM. Next, `CNC(=O)c1ccc(Nc2nc(O[C@H]3CCOC3)c3c(-c4cnn(C)c4)c[nH]c3n2)c(C(C)C)c1` [Example 208, (S)-3-isopropyl-N-methyl-4-(5-(1-methyl-1H-pyrazol-4-yl)-4-(tetahydrofuran-3-yloxy)-7H-pyrrolo[2,3-d]pyrimidin-2-ylamino)benzamide]: 100 to 400 nM; `CNC(=O)c1ccc(Nc2nc(OC3CCCC3)c3c(-c4cccc(N)c4)c[nH]c3n2)c(OC)c1` [Example 65, 4-(5-(3-aminophenyl)-4-(cyclopentyloxy)-7H-pyrrolo[2,3-d]pyrimidin-2-ylamino)-3-methoxy-N-methylbenzamide]: less than 100 nM; `COc1cc(-n2cccn2)ccc1Nc1nc(OC2CCCC2)c2c(-c3ccc4nc(C)oc4c3)c[nH]c2n1` [Example 228, 4-(cyclopentyloxy)-N-(2-methoxy-4-(1H-pyrazol-1-yl)phenyl)-5-(2-methylbenzo[d]oxazol-6-yl)-7H-pyrrolo[2,3-d]pyrimidin-2-amine]: 100 to 400 nM.

For the compound `CNC(=O)c1ccc(Nc2nc(NC3CC3)c3c(-c4cnn(C)c4)c[nH]c3n2)c(OC)c1` [Example 211, 4-(4-(cyclopropylamino)-5-(1-methyl-1H-pyrazol-4-yl)-7H-pyrrolo[2,3-d]pyrimidin-2-ylamino)-3-methoxy-N-methylbenzamide], the IC50 was in the range of 100 to 400 nM. On to `COc1cc(C(=O)NCCO)ccc1Nc1nc(OC2CC2)c2c(-c3cnn(C)c3)c[nH]c2n1` [Example 217, 4-(4-cyclopropoxy-5-(1-methyl-1H-pyrazol-4-yl)-7H-pyrrolo[2,3-d]pyrimidin-2-ylamino)-N-(2-hydroxyethyl)-3-methoxybenzamide], for which the IC50 lay within 100 to 400 nM. Next, `Cc1nc2ccc(-c3c[nH]c4nc(Nc5ccc6c(c5)CN(C)C6=O)nc(OC5CCCC5)c34)cc2o1` [Example 244, 5-(4-(cyclopentyloxy)-5-(2-methylbenzo[d]oxazol-6-yl)-7H-pyrrolo[2,3-d]pyrimidin-2-ylamino)-2-methylisoindolin-1-one]: less than 100 nM; `CNC(=O)c1ccc(Nc2nc(OC3CCOCC3)c3c(-c4ccc5nc(C)oc5c4C)c[nH]c3n2)c(OC)c1` [Example 135, 4-(5-(2,7-dimethylbenzo[d]oxazol-6-yl)-4-(tetrahydro-2H-pyran-4-yloxy)-7H-pyrrolo[2,3-d]pyrimidin-2-ylamino)-3-methoxy-N-methylbenzamide]: 1000 to 10000 nM; `COc1cc(C(=O)N2CC2(C)C)ccc1Nc1nc(OC2CCCC2)c2c(-c3ccc4nc(C)oc4c3)c[nH]c2n1` [Example 312, (4-(4-(cyclopentyloxy)-5-(2-methylbenzo[d]oxazol-6-yl)-7H-pyrrolo[2,3-d]pyrimidin-2-ylamino)-3-methoxyphenyl)(2,2-dimethylaziridin-1-yl)methanone]: 400 to 1000 nM. As for `CNC(=O)c1ccc(Nc2nc(O[C@H]3CCOC3)c3c(-c4ccnn4C)c[nH]c3n2)c(C(C)C)c1` [Example 225, (S)-3-isopropyl-N-methyl-4-(5-(1-methyl-1H-pyrazol-5-yl)-4-(tetrahydrofuran-3-yloxy)-7H-pyrrolo[2,3-d]pyrimidin-2-ylamino)benzamide], the IC50 lay within 1000 to 10000 nM. On to `CNC(=O)c1ccc(-c2c[nH]c3nc(Nc4ccc(C(=O)NC5COC5)cc4OC)nc(OC4CCCC4)c23)cc1` [Example 305, 4-(4-(cyclopentyloxy)-5-(4-(methylcarbamoyl)phenyl)-7H-pyrrolo[2,3-d]pyrimidin-2-ylamino)-3-methoxy-N-(oxetan-3-yl)benzamide], for which the IC50 was less than 100 nM.

The values are drawn from US9346812B2, “Substituted pyrrolopyrimidine compounds, compositions thereof, and methods of treatment therewith” (Signal Pharmaceutical LLC, priority 2013, dated 2016).
